Laboratory results published in the supplement of paper PMC10307832.

Legend:
Test in all cases: relative viability (nuclei count vs DMSO), 5 days (fraction); higher = more cells survive
FH535 + Pemetrexed = compound: CC1=C(C=CC(=C1)[N+](=O)[O-])NS(=O)(=O)C2=C(C=CC(=C2)Cl)Cl [FH535] + Nc1nc2[nH]cc(CCc3ccc(C(=O)N[C@@H](CCC(=O)O)C(=O)O)cc3)c2c(=O)[nH]1 [Pemetrexed] (partner 0.2 µM)
Outline: (§1)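 After 5 days of treatment, lung cancer cells in 1536-well plates were fixed and stained in a single step (final 0.05% Triton X-100, 1% formaldehyde, 1 ug/ml Hoechst) and their nuclei counted on 4× images. Treatment had been applied by pin tool the day after seeding as one drug alone or as a fixed anchor-drug dose with five library-drug doses (not always all listed) in √10 steps. Relative viability is the nuclei count of treated wells divided by that of vehicle wells, and values are medians of duplicate plates.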

FH535 + Palbociclib = compound: CC1=C(C=CC(=C1)[N+](=O)[O-])NS(=O)(=O)C2=C(C=CC(=C2)Cl)Cl [FH535] + CC(=O)c1c(C)c2cnc(Nc3ccc(N4CCNCC4)cn3)nc2n(C2CCCC2)c1=O [Palbociclib] (partner 0.5 µM)
Outline: as §1

FH535 + OSI-027 = compound: CC1=C(C=CC(=C1)[N+](=O)[O-])NS(=O)(=O)C2=C(C=CC(=C2)Cl)Cl [FH535] + COc1cccc2cc(-c3nc([C@H]4CC[C@H](C(=O)O)CC4)n4ncnc(N)c34)[nH]c12 [OSI-027] (partner 0.5 µM)
Outline: as §1

FH535 + Bortezomib = compound: CC1=C(C=CC(=C1)[N+](=O)[O-])NS(=O)(=O)C2=C(C=CC(=C2)Cl)Cl [FH535] + CC(C)C[C@H](NC(=O)[C@H](Cc1ccccc1)NC(=O)c1cnccn1)B(O)O [Bortezomib] (partner 0.002 µM)
Outline: as §1

FH535 + Tozasertib = compound: CC1=C(C=CC(=C1)[N+](=O)[O-])NS(=O)(=O)C2=C(C=CC(=C2)Cl)Cl [FH535] + Cc1cc(Nc2cc(N3CCN(C)CC3)nc(Sc3ccc(NC(=O)C4CC4)cc3)n2)n[nH]1 [Tozasertib] (partner 0.1 µM)
Outline: as §1

Cell Line	relative viability (FH535 + Pemetrexed; first compound 0.04 µM)	relative viability (FH535 + Pemetrexed; first compound 0.1265 µM)	relative viability (FH535 + Pemetrexed; first compound 0.4 µM)	relative viability (FH535 + Pemetrexed; first compound 1.265 µM)	relative viability (FH535 + Palbociclib; first compound 0.04 µM)	relative viability (FH535 + Palbociclib; first compound 0.1265 µM)	relative viability (FH535 + Palbociclib; first compound 0.4 µM)	relative viability (FH535 + Palbociclib; first compound 1.265 µM)	relative viability (FH535 + OSI-027; first compound 0.04 µM)	relative viability (FH535 + OSI-027; first compound 0.1265 µM)	relative viability (FH535 + OSI-027; first compound 0.4 µM)	relative viability (FH535 + OSI-027; first compound 1.265 µM)	relative viability (FH535 + Bortezomib; first compound 0.04 µM)	relative viability (FH535 + Bortezomib; first compound 0.1265 µM)	relative viability (FH535 + Bortezomib; first compound 0.4 µM)	relative viability (FH535 + Bortezomib; first compound 1.265 µM)	relative viability (FH535 + Tozasertib; first compound 0.04 µM)	relative viability (FH535 + Tozasertib; first compound 0.1265 µM)	relative viability (FH535 + Tozasertib; first compound 0.4 µM)	relative viability (FH535 + Tozasertib; first compound 1.265 µM)
NCI-H1666	0.838	0.834	0.948	0.794	0.674	0.639	0.614	0.631	0.866	0.843	0.777	0.705	0.725	0.882	0.705	0.625	0.6	0.544	0.631	0.545
NCI-H3122	0.199	0.191	0.188	0.189	0.169	0.218	0.195	0.187	0.919	1.06	0.885	0.751	0.979	0.976	0.989	0.919	0.329	0.367	0.475	0.369
NCI-H2009	1	1	0.955	0.836	0.243	0.174	0.229	0.215	0.58	0.627	0.566	0.486	0.92	0.984	0.896	0.58	0.777	0.806	0.747	0.631
HCC-78	0.837	0.868	0.904	0.871	0.487	0.512	0.458	0.425	0.374	0.334	0.357	0.38	0.475	0.471	0.593	0.434	0.462	0.397	0.409	0.414
NCI-H358	0.178	0.16	0.169	0.16	0.121	0.129	0.129	0.134	0.737	0.536	0.648	0.476	–	–	–	–	0.0899	0.0929	0.104	0.0851
NCI-H1793	0.655	0.932	0.66	0.584	0.315	0.306	0.348	0.241	0.295	0.225	0.306	0.244	–	–	–	–	0.305	0.297	0.353	0.213
ABC-1	–	–	–	–	0.715	0.641	0.458	0.583	0.446	0.418	0.452	0.414	0.331	0.26	0.33	0.34	0.181	0.216	0.218	0.217
NCI-H1703	–	–	–	–	–	–	–	–	–	–	–	–	0.413	0.288	0.425	0.317	–	–	–	–
NCI-H727	–	–	–	–	0.663	0.634	0.693	0.63	0.554	0.498	0.545	0.478	0.687	0.59	0.75	0.721	0.465	0.545	0.582	0.504
NCI-H596	0.499	0.507	0.454	0.507	–	–	–	–	0.697	0.551	0.55	0.652	0.915	1.09	1.19	0.952	0.947	0.992	0.931	0.696
NCI-H522	0.847	1.01	0.994	1.08	0.984	0.936	0.945	0.701	0.7	0.767	0.734	0.636	–	–	–	–	0.529	0.502	0.601	0.534
NCI-H2342	0.772	0.748	0.812	0.634	0.524	0.533	0.567	0.581	0.516	0.593	0.641	0.567	–	–	–	–	0.541	0.564	0.445	0.454
SW 900	0.441	0.479	0.501	0.472	0.516	0.503	0.507	0.454	0.531	0.582	0.505	0.333	–	–	–	–	0.535	0.525	0.536	0.484
NCI-H1792	0.708	0.807	0.673	0.54	0.657	0.629	0.664	0.486	0.636	0.661	0.667	0.524	0.971	0.932	0.835	0.688	–	–	–	–
IA-LM	–	–	–	–	–	–	–	–	–	–	–	–	0.89	0.799	0.747	0.47	–	–	–	–
SK-MES-1	0.934	0.906	0.913	0.849	0.305	0.301	0.312	0.263	0.679	0.573	0.565	0.435	–	–	–	–	0.952	0.954	0.751	0.658
NCI-H1563	0.786	0.679	0.752	0.625	–	–	–	–	0.736	0.701	0.801	0.678	0.835	1.04	0.816	0.719	–	–	–	–
